Data from patent US10266497B2 (ABIDE THERAPEUTICS, INC., priority 2017, dated 2019).

Assays:
MAGL [1] = biological target: T1, MAGL (Homo sapiens, UniProt Q99685); test: In vitro competitive activity-based protein profiling, MAGL, human; conditions: for inhibition at 1 µM: read-out: MAGL % inh. 1 μM (human)
T1 sequence (Q99685 1-303): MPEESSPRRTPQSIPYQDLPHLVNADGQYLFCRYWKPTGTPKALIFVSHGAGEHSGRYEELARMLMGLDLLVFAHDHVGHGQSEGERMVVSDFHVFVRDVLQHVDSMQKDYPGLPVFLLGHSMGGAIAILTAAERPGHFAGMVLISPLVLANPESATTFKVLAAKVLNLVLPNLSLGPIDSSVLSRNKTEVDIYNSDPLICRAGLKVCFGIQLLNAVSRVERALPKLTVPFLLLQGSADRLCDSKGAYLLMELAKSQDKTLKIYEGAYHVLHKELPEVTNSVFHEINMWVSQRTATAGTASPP

MAGL [2] = biological target: T2, MAGL (Mus musculus, UniProt O35678); test: In vitro competitive activity-based protein profiling, MAGL, mouse; conditions: read-out: MAGL % inh. 1 μM (mouse)
T2 sequence (O35678 1-303): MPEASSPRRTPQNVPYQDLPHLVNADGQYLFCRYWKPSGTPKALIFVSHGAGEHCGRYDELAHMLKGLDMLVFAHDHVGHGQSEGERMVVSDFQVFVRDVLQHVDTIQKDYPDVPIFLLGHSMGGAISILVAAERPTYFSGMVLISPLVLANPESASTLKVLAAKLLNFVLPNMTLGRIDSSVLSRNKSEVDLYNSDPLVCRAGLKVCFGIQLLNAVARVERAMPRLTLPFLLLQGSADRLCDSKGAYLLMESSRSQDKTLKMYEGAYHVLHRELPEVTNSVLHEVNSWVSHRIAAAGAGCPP

FAAH [3] = biological target: T3, FAAH (Homo sapiens, UniProt O00519); test: In vitro competitive activity-based protein profiling, FAAH, human; conditions: for inhibition at 1 µM: read-out: FAAH % inh. 1 μM (human)
T3 sequence (O00519 1-579): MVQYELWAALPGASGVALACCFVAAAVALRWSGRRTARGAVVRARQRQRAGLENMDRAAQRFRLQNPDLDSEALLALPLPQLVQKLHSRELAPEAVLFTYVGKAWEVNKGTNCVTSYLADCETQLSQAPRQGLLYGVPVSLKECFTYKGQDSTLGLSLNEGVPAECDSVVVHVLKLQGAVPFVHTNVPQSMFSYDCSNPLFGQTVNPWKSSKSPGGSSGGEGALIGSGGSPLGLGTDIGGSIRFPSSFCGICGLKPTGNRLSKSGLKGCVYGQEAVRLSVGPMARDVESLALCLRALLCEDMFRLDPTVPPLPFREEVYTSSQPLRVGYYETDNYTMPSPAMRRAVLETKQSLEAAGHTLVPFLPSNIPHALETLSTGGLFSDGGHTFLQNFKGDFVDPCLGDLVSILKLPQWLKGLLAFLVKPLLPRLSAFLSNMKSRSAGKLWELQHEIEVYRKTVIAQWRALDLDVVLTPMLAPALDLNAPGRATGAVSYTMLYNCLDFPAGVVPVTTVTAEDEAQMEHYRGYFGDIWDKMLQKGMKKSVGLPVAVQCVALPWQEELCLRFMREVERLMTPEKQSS

FAAH [4] = biological target: T4, FAAH (Mus musculus, UniProt O08914); test: In vitro competitive activity-based protein profiling, FAAH, mouse; conditions: read-out: FAAH % inh. 1 μM (mouse)
T4 sequence (O08914 1-579): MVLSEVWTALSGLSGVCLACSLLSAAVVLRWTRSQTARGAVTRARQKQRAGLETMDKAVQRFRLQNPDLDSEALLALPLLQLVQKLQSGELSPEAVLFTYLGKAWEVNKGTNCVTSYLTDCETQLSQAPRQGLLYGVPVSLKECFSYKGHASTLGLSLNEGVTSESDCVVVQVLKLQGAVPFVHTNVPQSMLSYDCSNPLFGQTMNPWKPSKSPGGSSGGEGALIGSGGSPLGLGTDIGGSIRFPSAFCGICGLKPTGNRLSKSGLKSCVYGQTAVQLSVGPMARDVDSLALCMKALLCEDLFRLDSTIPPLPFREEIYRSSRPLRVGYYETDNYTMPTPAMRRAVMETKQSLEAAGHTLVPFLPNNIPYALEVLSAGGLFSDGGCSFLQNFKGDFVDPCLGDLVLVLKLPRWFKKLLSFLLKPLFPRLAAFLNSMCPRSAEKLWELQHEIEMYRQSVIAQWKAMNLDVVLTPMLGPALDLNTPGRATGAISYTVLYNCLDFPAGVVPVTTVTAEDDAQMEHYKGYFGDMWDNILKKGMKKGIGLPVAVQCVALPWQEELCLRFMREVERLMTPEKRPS

SMILES	inhibition at 1 µM (MAGL [1])	inhibition at 1 µM (MAGL [2])	IC50 (FAAH [3])	inhibition at 1 µM (FAAH [3])	inhibition at 1 µM (FAAH [4])	inhibition at 10 µM (MAGL [1]; read-out: MAGL % inh. (human) at 10 uM)	inhibition at 50 µM (FAAH [3]; read-out: FAAH % inh. (human) at 50 uM)
O=C(O)c1ccn(C(=O)N2CCN(Cc3nc4ccccc4s3)CC2)n1 [Example 189, 1-(4-(benzo[d]thiazol-2-ylmethyl)piperazine-1-carbonyl)-1H-pyrazole-3-carboxylic acid]	> 75%	> 75%	–	0 to 25%	0 to 25%	–	–
CN(Cc1cccc(-c2ccccc2)c1)[C@@H]1C[C@@H]2CN(C(=O)n3ccc(C(=O)O)n3)C[C@@H]2C1 [Example 163, 1-(cis-5-(([1,1′-biphenyl]-3-ylmethyl)(methyl)amino)octahydro-cyclopenta[c]pyrrole-2-carbonyl)-1H-pyrazole-3-carboxylic acid]	0 to 25%	0 to 25%	–	25 to 50%	0 to 25%	–	–
O=C(O)c1ccn(C(=O)N2C[C@H]3C[C@@H](OCc4cc(F)cc(Cl)c4)C[C@H]3C2)n1 [Example 193, 1-(cis-5-((3-chloro-5-fluorobenzyl)oxy)octahydrocyclopenta [c]pyrrole-2-carbonyl)-1H-pyrazole-3-carboxylic acid]	25 to 50%	25 to 50%	–	> 75%	> 75%	–	–
O=C(O)c1ccn(C(=O)N2CCN(Cc3ccc(C(F)(F)F)cc3-c3nnn[nH]3)CC2)n1 [Example 5, 1-(4-(2-(1H-Tetrazol-5-yl)-4-(trifluoromethyl)benzyl)piperazine-1-carbonyl)-1H-pyrazole-3-carboxylic Acid]	> 75%	50 to 75%	–	0 to 25%	0 to 25%	–	–
NC(=O)c1ccn(C(=O)N2CCN(Cc3ccc(Cl)cc3)CC2)n1 [Example 181, 1-(4-(4-chlorobenzyl)pipera-zine-1-carbonyl)-1H-pyrazole-3-carboxamide]	> 75%	> 75%	–	> 75%	> 75%	–	–
O=C(O)c1ccn(C(=O)N2CCN(Cc3ccc(C(F)(F)F)cc3-c3nnco3)CC2)n1 [Example 69, 1-(4-(2-(1,3,4-oxadiazol-2-yl)-4-(trifluoromethyl)benzyl)piperazine-1-carbonyl)-1H-pyrazole-3-carboxylic acid]	> 75%	> 75%	–	0 to 25%	0 to 25%	–	–
O=C(O)c1ccn(C(=O)N2CC3CN(Cc4cc(F)cc(Cl)c4)CC3C2)n1 (centres unmarked) [Example 115, 1-(5-(3-chloro-5-fluorobenzyl)octa-hydropyrrolo[3,4-c]pyrrole-2-carbonyl)-1H-pyrazole-3-carboxylic acid]	25 to 50%	0 to 25%	–	50 to 75%	> 75%	–	–
O=C(O)c1ccn(C(=O)N2CCC3(CCCN3C(=O)c3cc4ccc(C(F)(F)F)cc4s3)CC2)n1 [Example 56, 1-(1-(6-(trifluoromethyl)benzo[b]thiophene-2-carbonyl)-1,8-diazaspiro[4.5]decane-8-carbonyl)-1H-pyrazole-3-carboxylic acid]	> 75%	> 75%	–	0 to 25%	50 to 75%	–	–
O=C(O)c1ccn(C(=O)N2CCN(Cc3cccc(Oc4ncccn4)c3)CC2)n1 [Example 62, 1-(4-(3-(pyrimidin-2-yloxy)benzyl)piper-azine-1-carbonyl)-1H-pyrazole-3-carboxylic acid]	50 to 75%	0 to 25%	–	0 to 25%	0 to 25%	–	–

Next, values leading:

inhibition at 1 µM (MAGL [1])	inhibition at 1 µM (MAGL [2])	IC50 (FAAH [3])	inhibition at 1 µM (FAAH [3])	inhibition at 1 µM (FAAH [4])	inhibition at 10 µM (MAGL [1]; read-out: MAGL % inh. (human) at 10 uM)	inhibition at 50 µM (FAAH [3]; read-out: FAAH % inh. (human) at 50 uM)	SMILES
> 75%	> 75%	100 to 1000 nM	0 to 25%	50 to 75%	–	–	O=C(O)c1nn(C(=O)N2CCC3(CCN(Cc4ccc(N5CCCC5)cc4C(F)(F)F)C3)CC2)cc1Cl [Example 138, 4-chloro-1-(2-(4-(pyrrolidin-1-yl)-2-(trifluoromethyl)benzyl)-2,8-diazaspiro[4.5]decane-8-carbonyl)-1H-pyrazole-3-carboxylic acid]
> 75%	> 75%	–	0 to 25%	0 to 25%	–	–	O=C(O)c1ccn(C(=O)N2CCN(Cc3ccc(C(F)(F)F)cc3N3CCC(F)(F)CC3)CC2)n1 [Example 108, 1-(4-(2-(4,4-difluoropiperidin-1-yl)-4-(trifluoromethyl)benzyl)piperazine-1-carbonyl)-1H-pyrazole-3-carboxylic acid]
–	0 to 25%	–	–	0 to 25%	> 75%	> 75%	O=C(O)c1nn(C(=O)N2CC3CN(Cc4ccc(-c5nnn[nH]5)cc4C(F)(F)F)CC3C2)cc1Cl (centres unmarked) [Example 141, 1-(5-(4-(1H-tetrazol-5-yl)-2-(trifluoromethyl)benzyl)octahydro-pyrrolo[3,4-c]pyrrole-2-carbonyl)-4-chloro-1H-pyrazole-3-carboxylic acid]
50 to 75%	0 to 25%	–	0 to 25%	0 to 25%	–	–	O=C(O)c1ccn(C(=O)N2CCC3(CCN(Cc4ccc(N5CCCC5)c(Cl)c4)C3)CC2)n1 [Example 168, 1-(2-(3-chloro-4-(pyrrolidin-1-yl)benzyl)-2,8-diazaspiro[4.5]decane-8-carbonyl)-1H-pyrazole-3-carboxylic acid]
> 75%	> 75%	–	0 to 25%	0 to 25%	–	–	CN(Cc1ccc(Cl)cc1N1CCCC1)C1(C)CCN(C(=O)n2ccc(C(=O)O)n2)CC1 [Example 46, 1-(4-((4-chloro-2-(pyrrolidin-1-yl)benzyl)(methyl)amino)-4-methylpiperidine-1-carbonyl)-1H-pyrazole-3-carboxylic acid]
> 75%	> 75%	1000 to 10000 nM	0 to 25%	0 to 25%	–	–	O=C(O)c1ccn(C(=O)N2CCC3(CCN(Cc4cc(Cl)cc(C(F)(F)F)c4)C3)CC2)n1 [Example 72, 1-(2-(3-chloro-5-(trifluoromethyl)benzyl)-2,8-diazaspiro[4.5]decane-8-carbonyl)-1H-pyrazole-3-carboxylic acid]
> 75%	> 75%	100 to 1000 nM	> 75%	25 to 50%	–	–	O=C(O)c1ccn(C(=O)N2CCC3(CCN(Cc4cc(Cl)cc(Cl)c4)C3)CC2)n1 [Example 162, 1-(2-(3,5-dichlorobenzyl)-2,8-diazaspiro[4.5]decane-8-carbonyl)-1H-pyrazole-3-carboxylic acid]
> 75%	> 75%	–	25 to 50%	25 to 50%	–	–	O=C(O)c1nn(C(=O)N2CC3CN(Cc4cc(N5CCCC5)cc(C(F)(F)F)c4)CC3C2)cc1Cl (centres unmarked) [Example 151, 4-chloro-1-(5-(3-(pyrrolidin-1-yl)-5-(trifluoromethyl)benzyl)octahydro-pyrrolo[3,4-c]pyrrole-2-carbonyl)-1H-pyrazole-3-carboxylic acid]
